Laboratory results reported in patent US20240246920A1, “TRIAZOLE DERIVATIVES WITH ANTIFUNGAL ACTIVITY” (King's College London, priority 2020, published 2024).
Converted amounts (≈) assume the structure as drawn. Like-named read-outs stand apart in the source and are kept apart here.

How the values were obtained:
C. glabrata NCPF8018 = assay: Candida panel MIC, serial dilution in 96-well plates; type: cell-based, Candida glabrata; settings: Nakaseomyces glabratus
How it was run: (§1)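 MIC taken as lowest concentration inhibiting growth ≥50% relative to drug-free control, from OD530 after 24 hours at 37° C. Fungi at 0.5-5×10^5/mL were exposed to serially diluted compound in RPMI 1640/MOPS/2% glucose medium adjusted to pH 7.0.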

C. albicans NCPF3281 = assay: as above; type: cell-based, Candida albicans; settings: NCPF3281, read-out: MIC C. albicans NCPF3281
How it was run: (§2)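 Overnight starter cultures were diluted to OD600 0.01 and added to serially diluted compound (128 to 0.25 μg/mL) in MOPS-buffered RPMI with 2% glucose, pH 7.0, giving 0.5-5×10^5 cells/mL. After 24 h at 37 °C, OD530 was measured and the ≥50% inhibition endpoint taken as MIC.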

Candida auris TDG2211 = assay: microbe, parasite or virus in culture; type: cell-based; settings: Candidozyma auris, TDG2211; Table 4, extended panel; 24 hours, ≥50% inhibition; read-out: MIC Candida auris TDG2211
How it was run: (§3)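 MIC = lowest concentration inhibiting growth ≥50% relative to drug-free control, read by OD530 nm after 24 h at 37° C. Medium: RPMI 1640/MOPS/2% glucose, pH 7.0. Inoculum 0.5-5×10^5/mL.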

Candida auris TDG2506 = assay: microbe, parasite or virus in culture; type: cell-based; settings: Candidozyma auris, TDG2506; Table 4, extended panel; 24 hours, ≥50% inhibition; read-out: MIC Candida auris TDG2506
How it was run: as §3

C. parapsilosis NCPF3209 = assay: microbe, parasite or virus in culture; type: cell-based, Candida parapsilosis; settings: Lodderomyces parapsilosis
How it was run: as §1

C. auris 8984 = assay: Candida panel MIC, serial dilution in 96-well plates; type: cell-based, Candida auris; settings: Candidozyma auris, 8984; Table 4, extended panel; 24 hours, ≥50% inhibition; read-out: MIC C. auris 8984
How it was run: as §3

C. auris 8977 = assay: as above; type: cell-based, Candida auris; settings: Candidozyma auris, 8977; Table 4, extended panel; 24 hours, ≥50% inhibition; read-out: MIC C. auris 8977
How it was run: as §3

C. auris 8971 = assay: as above; type: cell-based, Candida auris; settings: Candidozyma auris, 8971; Table 4, extended panel; 24 hours, ≥50% inhibition; read-out: MIC C. auris 8971
How it was run: as §3

C. auris strain TDG1912 = assay: Galleria mellonella infection model, larval survival; type: in vivo; settings: G. mellonella infected with C. auris TDG1912; survival over 120 hours
Method: The effects of test compounds in-vivo was assessed using a Galleria mellonella infection model.
G. mellonella were injected in a proleg with 10 μL of C. auris strain TDG1912 (OD4) at a concentration of 1×10^6 cfu/10 μL using a Hamilton syringe and left for 30 minutes to recover from injection and to allow infection to begin. The G. mellonella were then injected with 10 μL of the compound of the invention at either 50 mg/kg (10% DMSO) or 20 mg/kg (4% DMSO) or PBS containing 10% DMSO as an infection-only control. 10 larvae were selected for each treatment, and the experiment was repeated 3 times for the test compound and fluconazole. Survival of larvae was monitored for a 5 day period and results are presented as % survival over 120 hours (see FIG. 1).

[1] = test system: Galleria mellonella larvae; assay: Toxicity to larvae in the Galleria mellonella model; type: in vivo; settings: dose of 50 mg/kg
C. albicans 3880 = assay: Candida albicans panel MIC; type: cell-based; settings: Table 6, Candida albicans panel
Method: (§4) The minimum inhibitory concentration of test compounds were determined in a panel of Candida species (see Table 4 below), using the a serial dilution method in 96-well plates using the following protocol.
(§5) Starter cultures of fungal strains to be tested were grown in 3 mL of RPMI 2% glucose media incubated at 37° C. with shaking at 200 rpm overnight. The culture media used was 900 mL H2O; 10.4 g RPMI 1640 (with L-glutamine and a pH indicator but without bicarbonate); 34.5 g MOPS and 18 g glucose. The pH of the media was adjusted to 7.0 with 1 M sodium hydroxide.
(§6) Solutions of the compound to be tested were prepared by dissolving the compound in DMSO and subsequently into media to the desired concentrations. 200 μL of compound solution was then added to the wells of the 96-well plate using a serial dilution method row-by row of the plate to give a compound concentration gradient across the plate of from 128 μg/mL to 0.25 μg/mL. The last two rows of each plate were control rows containing the culture media alone and the media plus fungi.
(§7) The fungi starter cultures were diluted 1:10 in water in cuvettes. This was then further diluted to an optical density (OD600) of 0.01 in media. 100 μL of the fungi was added to each well giving a starting concentration of fungus of 0.5-5×10^5/mL. One species of fungus was used on each plate. The plates were then held at 37° C. for 24 hours.
(§8) A plate reader was used to measure growth in each well at OD530 nm and the MIC was determined for each test compound. The MIC is defined as the lowest concentration giving rise to inhibition of ≥50% of that of the drug-free control well containing the fungus and media.
(§9) The compounds shown in Table 6 were tested against a further panel of Candida albicans.

C. albicans 8112 = assay: Candida albicans panel MIC; type: cell-based; settings: Table 6, Candida albicans panel
Method: as §4, §5, §6, §7, §8, §9

C. albicans 3882 = assay: Candida albicans panel MIC; type: cell-based; settings: Table 6, Candida albicans panel
Method: as §4, §5, §6, §7, §8, §9

C. albicans 3990 = assay: Candida albicans panel MIC; type: cell-based; settings: Table 6, Candida albicans panel
Method: as §4, §5, §6, §7, §8, §9

C. albicans 3645 = assay: Candida albicans panel MIC; type: cell-based; settings: Table 6, Candida albicans panel
Method: as §4, §5, §6, §7, §8, §9

C. albicans 3881 = assay: Candida albicans panel MIC; type: cell-based; settings: Table 6, Candida albicans panel
Method: as §4, §5, §6, §7, §8, §9

C. albicans 3363 = assay: Candida albicans panel MIC; type: cell-based; settings: Table 6, Candida albicans panel
Method: as §4, §5, §6, §7, §8, §9

C. auris TDG1912 = assay: Candida panel MIC, serial dilution in 96-well plates; type: cell-based; settings: Candidozyma auris, TDG1912; Table 4; 24 hours, ≥50% inhibition; read-out: MIC C. auris TDG1912
How it was run: as §2

Candida auris TDG2512 = assay: as above; type: cell-based; settings: Candidozyma auris, TDG2512; Table 4, extended panel; 24 hours, ≥50% inhibition; read-out: MIC Candida auris TDG2512
How it was run: as §2

C. tropicalis NCPF8760 = assay: as above; type: cell-based
How it was run: as §2

Candida auris TDG1102 = assay: as above; type: cell-based; settings: Candidozyma auris, TDG1102; Table 4, extended panel; 24 hours, ≥50% inhibition; read-out: MIC Candida auris TDG1102
How it was run: as §2

C. krusei NCPF3876 = assay: microbe, parasite or virus in culture; type: cell-based, Candida krusei; settings: Pichia kudriavzevii
How it was run: as §1

SMILES: OC(CN1CCC(Nc2ccc(OCCN3CCOCC3)cc2)CC1)(Cn1cncn1)c1ccc(F)cc1F (stereo not drawn) [Example 6, 2-(2,4-Difluorophenyl)-1-(4-((4-(2-morpholinoethoxy)phenyl)amino)piperidin-1-yl)-3-(1H-1,2,4-triazol-1-yl)propan-2-ol]
- MIC (C. glabrata NCPF8018; NCPF8018, read-out: MIC C. Glabrata NCPF8018): 2 to 4 µg/mL (≈ 3.69 to 7.37 µM)
- MIC (C. glabrata NCPF8018; NCPF8018, Table 4, common panel, 24 hours, ≥50% inhibition, read-out: MIC C. glabrata NCPF8018): 0.25 µg/mL (≈ 0.461 µM)
- MIC (C. albicans NCPF3281; Candida albicans, Table 4, common panel, 24 hours, ≥50% inhibition): 0.004 µg/mL (≈ 0.00737 µM)
- MIC (C. albicans NCPF3281; Table 6, Candida albicans panel): ≤ 0.125 µg/mL
- MIC (Candida auris TDG2211): 0.5 µg/mL (≈ 0.921 µM)
- MIC (Candida auris TDG2506): 0.25 µg/mL (≈ 0.461 µM)
- MIC (C. parapsilosis NCPF3209; NCPF3209, read-out: MIC C. Parapsilosis NCPF3209): 0.015 µg/mL (≈ 0.0276 µM)
- MIC (C. parapsilosis NCPF3209; NCPF3209, Table 4, common panel, 24 hours, ≥50% inhibition, read-out: MIC C. parapsilosis NCPF3209): 0.015 µg/mL (≈ 0.0276 µM)
- MIC (C. auris 8984): 0.125 µg/mL (≈ 0.23 µM)
- MIC (C. auris 8977): 0.06 µg/mL (≈ 0.111 µM)
- MIC (C. auris 8971): 0.03 µg/mL (≈ 0.0553 µM)
- Protection against multi-drug resistant C. auris (larval survival) (C. auris strain TDG1912): statistically significant protection
- Toxicity to the larvae [1]: No toxicity
- MIC (C. albicans 3880): 0.25 µg/mL (≈ 0.461 µM)
- MIC (C. albicans 8112): 0.0156 µg/mL (≈ 0.0287 µM)
- MIC (C. albicans 3882): 0.5 µg/mL (≈ 0.921 µM)
- MIC (C. albicans 3990): 0.25 µg/mL (≈ 0.461 µM)
- MIC (C. albicans 3645): 0.0156 µg/mL (≈ 0.0287 µM)
- MIC (C. albicans 3881): 0.5 µg/mL (≈ 0.921 µM)
- MIC (C. albicans 3363): 0.25 µg/mL (≈ 0.461 µM)
- MIC (C. auris TDG1912): 0.125 µg/mL (≈ 0.23 µM)
- MIC (Candida auris TDG2512): 0.015 µg/mL (≈ 0.0276 µM)
- MIC (C. tropicalis NCPF8760; NCPF8760, Table 4, common panel, 24 hours, ≥50% inhibition, read-out: MIC C. tropicalis NCPF8760): 0.008 µg/mL (≈ 0.0147 µM)
- MIC (C. tropicalis NCPF8760; NCPF8760, read-out: MIC C. Tropicalis NCPF8760): 0.008 µg/mL (≈ 0.0147 µM)
- MIC (Candida auris TDG1102): 0.12 µg/mL (≈ 0.221 µM)
- MIC (C. krusei NCPF3876; NCPF3876, read-out: MIC C. Krusei NCPF3876): 0.125 µg/mL (≈ 0.23 µM)
- MIC (C. krusei NCPF3876; NCPF3876, Table 4, common panel, 24 hours, ≥50% inhibition, read-out: MIC C. krusei NCPF3876): 0.125 µg/mL (≈ 0.23 µM)
